Test results: patent publication US11505783B2, “Differentiation of human embryonic stem cells” (Janssen Biotech, Inc., priority 2007, dated 2022)
Read-outs that look alike come from different tables or passages of the source.

B1: Chordin: known inhibitor of BMP signaling (R&D Systems) (protein, UniProt Q9H2X0 27-955, looked up)
Chordin: AGPEPPVLPIRSEKEPLPVRGAAGCTFGGKVYALDETWHPDLGEPFGVMRCVLCACEAPQWGRRTRGPGRVSCKNIKPECPTPACGQPRQLPGHCCQTCPQERSSSERQPSGLSFEYPRDPEHRSYSDRGEPGAEERARGDGHTDFVALLTGPRSQAVARARVSLLRSSLRFSISYRRLDRPTRIRFSDSNGSVLFEHPAAPTQDGLVCGVWRAVPRLSLRLLRAEQLHVALVTLTHPSGEVWGPLIRHRALAAETFSAILTLEGPPQQGVGGITLLTLSDTEDSLHFLLLFRGLLEPRSGGLTQVPLRLQILHQGQLLRELQANVSAQEPGFAEVLPNLTVQEMDWLVLGELQMALEWAGRPGLRISGHIAARKSCDVLQSVLCGADALIPVQTGAAGSASLTLLGNGSLIYQVQVVGTSSEVVAMTLETKPQRRDQRTVLCHMAGLQPGGHTAVGICPGLGARGAHMLLQNELFLNVGTKDFPDGELRGHVAALPYCGHSARHDTLPVPLAGALVLPPVKSQAAGHAWLSLDTHCHLHYEVLLAGLGGSEQGTVTAHLLGPPGTPGPRRLLKGFYGSEAQGVVKDLEPELLRHLAKGMASLMITTKGSPRGELRGQVHIANQCEVGGLRLEAAGAEGVRALGAPDTASAAPPVVPGLPALAPAKPGGPGRPRDPNTCFFEGQQRPHGARWAPNYDPLCSLCTCQRRTVICDPVVCPPPSCPHPVQAPDQCCPVCPEKQDVRDLPGLPRSRDPGEGCYFDGDRSWRAAGTRWHPVVPPFGLIKCAVCTCKGGTGEVHCEKVQCPRLACAQPVRVNPTDCCKQCPVGSGAHPQLGDPMQADGPRGCRFAGQWFPESQSWHPSVPPFGEMSCITCRCGAGVPHCERDDCSLPLSCGSGKESRCCSRCTAHRRPAPETRTDPELEKEAEGS

What was measured:
[1] = system: human embryonic stem cell line H1; conditions: end of stage 5, real-time PCR
Description: (§1) Cells of the human embryonic stem cell line H1, at passage 51 were cultured on […]™ coated dishes (1:30 dilution) and exposed to DMEM/F12 medium supplemented with 0.5% FBS, and 100 ng/ml Activin-A (R&D Systems, MN) plus 20 ng/ml WNT-3a (Catalog #1324-WN-002, R&D Systems, MN), for two days followed by treatment with DMEM/F12 media supplemented with 2% FBS and 100 ng/ml Activin-A (AA) for an additional two days. Next the cultures were treated with DMEM/F12+2% FBS+20 ng/ml FGF7+0.25 μm Cyclopamine-KAAD (#239804, Calbiochem, CA) for three days followed by four day incubation in DMEM/F12+1% B27 (Invitrogen, CA)+20 ng/ml FGF7+0.25 μm Cyclopamine-KAAD+2 μm Retinoic acid (RA) (Sigma, MO).
Next, the cells were cultured in DMEM/F12+1% B27 (Invitrogen, CA)+50 ng/ml Exendin-4 (Sigma, MO)+1 μm DAPT (Calbiochem, CA) for six days followed by additional three days incubation in DMEM/F12+1% B27 (Invitrogen, CA)+50 ng/ml Exendin-4 (Sigma, MO)+50 ng/ml IGF (Peprotech, N.J.)+50 ng/ml HGF (R&D Systems, MN). Some of the cultures were treated with 1 μM of the following compounds at either stage 3, stage 4, or stages 3+4: MEK/MAPK inhibitor (2′-Amino-3′-methoxyflavone) (PD98059, Calbiochem, CA), RAF kinase inhibitor (5-Iodo-3-R3,5-dibromo-4-hydroxyphenyl)methylenel-2-indolinone) (#553008, Calbiochem, CA), SMAD3 inhibitor (6,7-Dimethyl-2-((2E)-3-(1-methyl-2-phenyl-1Hpyrrolo[2,3-b]pyridin-3-yl-prop-2-enoyl))-1,2,3,4-tetrahydroisoquinoline) (#566405, Calbiochem, CA), AKT inhibitor (1L6-Hydroxymethyl-chiroinositol-2-(R)-2-O-methyl-3-O-octadecyl-sn-glycerocarbonate) (#124005, Calbiochem, CA), MEK inhibitor (#444937 Calbiochem, CA), and TGF-B receptor I inhibitor (2-(3-(6-Methylpyridin-2-yl)-1H-pyrazol-4-yl)-1,5-naphthyridine) (inhibits activin receptor-like kinase 5, #616452, Calbiochem, CA).

[2] = system: human embryonic stem cell line H1; conditions: end of stage 5, real-time PCR; remark: listed apart in the source
Description: as §1, with “44” for “51”
Next, cells were cultured in DMEM/F12+1% B27 (Invitrogen, CA)+50 ng/ml Exendin-4 (Sigma, MO)+1 μm DAPT (Calbiochem, CA) for six days followed by additional three days incubation in DMEM/F12+1% B27 (Invitrogen, CA)+50 ng/ml Exendin-4 (Sigma, MO)+50 ng/ml IGF (Peprotech, N.J.)+50 ng/ml HGF (R&D Systems, MN). Some of the cultures were treated with 1 μM of TGF-B receptor I kinase inhibitor (2-(3-(6-Methylpyridin-2-yl)-1H-pyrazol-4-yl)-1,5-naphthyridine) (an inhibitor of activin receptor-like kinase 5, #616452, Calbiochem, CA) at stage 4, stage 5, or stages 4 and 5.

[3] = system: human embryonic stem cell line H1; conditions: 1-10 μm at stages 4 and 5; end of stages 4 to 5; compared to controls (standard treatment)
Description: Next the cultures were treated with DMEM/F12+2% FBS+20 ng/ml FGF7+0.25 μm Cyclopamine-KAAD (#239804, Calbiochem, CA) for three days followed by four day incubation in DMEM/F12+1% B27 (Invitrogen, CA)+20 ng/ml FGF7+0.25 μm Cyclopamine-KAAD+2 μm Retinoic acid (RA) (Sigma, MO).
Next, cells were cultured in DMEM/F12+1% B27 (Invitrogen, CA)+50 ng/ml Exendin-4 (Sigma, MO)+1 μm DAPT (Calbiochem, CA) for six days followed by additional three days incubation in DMEM/F12+1% B27 (Invitrogen, CA)+50 ng/ml Exendin-4 (Sigma, MO)+50 ng/ml IGF (Peprotech, N.J.)+50 ng/ml HGF (R&D Systems, MN).

[4] = system: human embryonic stem cell line H1; experiment: FACS analysis of insulin and synaptophysin in stage 6 cultures, Chordin instead of Noggin (Example 15); format: cell-based; conditions: 50-100 ng/ml at stages 3-4 instead of Noggin, compared with Noggin
Description: Cells were dissociated into single cells from monolayer cultures using TrypLE Express (Invitrogen, Carlsbad, Calif.) and washed in cold PBS. For fixation, cells were resuspended in 200-300 μl Cytofix/Cytoperm Buffer (BD 554722, BD, Ca) and incubated for 30 min at 4° C. Cells were washed two times in 1 ml Perm/Wash Buffer Solution (BD 554723) and resuspended in 100 μl staining/blocking solution containing 2% normal goat serum in Perm/Wash buffer. For flow cytometric analysis, cells were stained with the following primary antibodies: Anti-Insulin (Rabbit mAb, Cell Signaling No. C27C9; 1:100 dilution), Anti-Glucagon (Mouse Mab, Sigma No. G2654, 1:100); Anti-Synaptophysin (Rabbit Polyclonal antibody, DakoCytomation No A0010, 1:50); Cells were incubated for 30 min at 4° C. followed by two washes in Perm/Wash buffer and further 30 min incubation in appropriate secondary antibodies as follows: Goat anti-Rabbit Alexa 647 (Invitrogen No. A21246) or Goat anti-Mouse 647 (Invitrogen No. A21235); Goat anti-Rabbit R-PE (BioSource No. ALI4407). All secondary antibodies were used at 1:200 dilution. Cells were washed at least once in Perm/Wash buffer and analyzed using BD FACSArray. A least 10,000 events were acquired for analysis. Controls included undifferentiated H1 cells and b-TC (ATCC, VA) cell line. FIGS. 20A-20C show the percentage insulin positive and synapthophysin+ cells in stage 6 cultures. […]

[5] = 1 μM added at stage 4 or stages 3 and 4
[6] = 1 μM added at stage 4 or stages 4 and 5

Molecule | expression of PDX-1 [1, 5] | expression of insulin, glucagon, NeuroD, and NKX2.2 [1, 5] | expression of endocrine markers ([1]; 1 μM added only at stage 3) | expression of PDX-1 [2, 6] | expression of insulin, glucagon, NeuroD, and NKX2.2 [2, 6] | expression of endocrine markers ([2]; 1 μM added only at stage 5) | expression of insulin, glucagon, PDX-1 and NeuroD [3] | expression of insulin and synaptophysin by FACS [4]
Cc1cccc(-c2n[nH]cc2-c2ccc3ncccc3n2)n1 [ALK5 inhibitor II, 2-(3-(6-Methylpyridin-2-yl)-1H-pyrazol-4-yl)-1,5-naphthyridine] | marginally affecting | significantly enhanced | marginally upregulated | marginally affecting | significantly enhanced | marginally upregulated | significantly enhanced | –
B1 | – | – | – | – | – | – | – | very similar expression
